# Measured values from patent US10219513B2, “Safening 4-amino-3-chloro-6-(4-chloro-2-fluoro-3-methoxyphenyl)-5-fluoropyridine-2-carboxylic acid compositions in Brassica species and methods of use thereof” (Dow AgroSciences LLC, priority 2016, dated 2019).
# Several values for one entry are separate records, joined by “and”; a condition that tells them apart may be missing. Equal values may be shown once.
# Experiments:
# [1] = tested on: Brassica alboglabra (kale/Chinese kale, BRSAG); experiment: Greenhouse postemergence application, visual injury after 20-22 d, BRSAG; conditions: for Obs % visual injury: BRSAG
# Method: (§1) Seeds of the desired test plant species were planted in Sun Gro MetroMix® 306 planting mixture, which typically has a pH of 6.0 to 6.8 and an organic matter content of about 30 percent, in plastic pots with a surface area of 103.2 square centimeters (cm^2). […] The plants were grown for 7-36 days (d) in a greenhouse with an approximate 14-hour (h) photoperiod which was maintained at about 23° C. during the day and 22° C. during the night. Nutrients and water were added on a regular basis and supplemental lighting was provided with overhead metal halide 1000-Watt lamps as necessary. The plants were employed for testing when they reached the second or third true leaf stage.
# (§2) An aliquot of formulated benzyl 4-amino-3-chloro-6-(4-chloro-2-fluoro-3-methoxyphenyl)-5-fluoropyridine-2-carboxylate (florpyrauxifen-benzyl; 300 grams active ingredient per liter (g ai/L) suspension concentrate (SC)) was placed in a 25 mL glass vial and diluted in a volume of 1.25% (v/v) aqueous Agri-dex crop oil concentrated to obtain a stock solution. […] The concentrated stock solutions were diluted with an aqueous mixture of 1.25% v/v of aqueous Agri-dex crop oil concentrate to provide the appropriate application rates. Compound requirements are based upon a 12 milliliter (mL) application volume at a rate of 187 liters per hectare (L/ha). Stock solutions of the formulated materials were prepared following the same procedure. Spray solutions of the compound mixtures were prepared by adding the stock solutions to the appropriate amount of dilution solution to form a 12 mL spray solution. Formulated compounds were applied to the plant material with an overhead Mandel track sprayer equipped with 8002E nozzles calibrated to deliver 187 L/ha over an application area of 0.503 square meters (m^2) at a spray height of 18 inches (43 centimeters (cm)) above average plant canopy. Control plants were sprayed in the same manner with the solvent blank.
# (§3) The treated plants and control plants were placed in a greenhouse as described above and watered by sub-irrigation to prevent wash-off of the test compounds. After 20-22 d, the condition of the test plants as compared with that of the control plants was determined visually and scored on a scale of 0 to 100 percent where 0 corresponds to no injury and 100 corresponds to complete kill. Colby's equation was used to determine the herbicidal effects expected from the mixtures.
# (§4) Benzyl 4-amino-3-chloro-6-(4-chloro-2-fluoro-3-methoxyphenyl)-5-fluoropyridine-2-carboxylate (florpyrauxifen-benzyl, 300 g ai/L SC) was combined in two-, three-, and four-way mixtures with one or more of the following: clopyralid-olamine (as Lontrel™ 35A Herbicidal Concentrate), quinclorac (as Facet 75DF), isoxadifen-ethyl (100 g/L SC), cloquintocet-mexyl (120 g/L EC) or mefenpyr-diethyl (as mefenpyr-diethyl 15WP). The mixtures were applied to kale/Chinese kale (Brassica alboglabra, BRSAG), Juncea canola or brown mustard (Brassica juncea, BRSJU), rutabaga (Brassica napus var. napobrassica, BRSNA), all varieties of canola and oilseed rape (Brassica napus, BRSNN), Nexera™ canola (Brassica napus, BRSNN-NEX), winter oilseed rape (Brassica napus, BRSNW), Roundup Ready® canola (Brassica napus, RR-BRSNN), and turnip or Polish canola (Brassica rapa, BRSRR), and the phytotoxicity of the compositions was measured.
# (§5) Colby's equation was used to determine the herbicidal effects expected from the mixtures evaluated in the described trials (Colby, S. R. Calculation of the synergistic and antagonistic response of herbicide combinations. Weeds 1967, 15, 20-22.).
# (§6) The following equation was used to calculate the expected activity of mixtures containing two active ingredients, A and B: Expected=A+B−(A×B/100) • A=observed efficacy of active ingredient A at the same concentration as used in the mixture; • B=observed efficacy of active ingredient B at the same concentration as used in the mixture.
# [2] = tested on: Brassica napus (all varieties of canola and oilseed rape, BRSNN); experiment: Greenhouse postemergence application, visual injury after 20-22 d, BRSNN; conditions: for Obs % visual injury: BRSNN
# Method: as §1, §2, §3, §4, §5, §6
# [3] = tested on: Brassica napus (Roundup Ready canola, RR-BRSNN); experiment: Greenhouse postemergence application, visual injury after 20-22 d, RR-BRSNN; conditions: for Obs % visual injury: RR-BRSNN
# Method: as §1, §2, §3, §4, §5, §6
# [4] = tested on: Brassica juncea (Juncea canola or brown mustard, BRSJU); experiment: Greenhouse postemergence application, visual injury after 20-22 d, BRSJU; conditions: for Obs % visual injury: BRSJU
# Method: as §1, §2, §3, §4, §5, §6
# [5] = tested on: Brassica napus (winter oilseed rape, BRSNW); experiment: Greenhouse postemergence application, visual injury after 20-22 d, BRSNW; conditions: for Obs % visual injury: BRSNW
# Method: as §1, §2, §3, §4, §5, §6
# [6] = tested on: Brassica rapa (turnip or Polish canola, BRSRR); experiment: Greenhouse postemergence application, visual injury after 20-22 d, BRSRR; conditions: for Obs % visual injury: BRSRR
# Method: as §1, §2, §3, §4, §5, §6
# [7] = tested on: Brassica napus (Nexera canola, BRSNN-NEX); experiment: Greenhouse postemergence application, visual injury after 20-22 d, BRSNN-NEX; conditions: for Obs % visual injury: BRSNN-NEX
# Method: as §1, §2, §3, §4, §5, §6
# [8] = tested on: Brassica napus var. napobrassica (rutabaga, BRSNA); experiment: Greenhouse postemergence application, visual injury after 20-22 d, BRSNA; conditions: for Obs % visual injury: BRSNA
# Method: as §1, §2, §3, §4, §5, §6
# [9] = clopyralid-olamine 50 g ai/ha alone
# [10] = clopyralid-olamine 100 g ai/ha alone
# [11] = clopyralid-olamine 200 g ai/ha alone
# [12] = postemergence application, greenhouse, application rate (g ai/ha) varies
structure (smiles),measurement,setting,value
"CCOC(=O)C1=NN(c2ccc(Cl)cc2Cl)C(C)(C(=O)OCC)C1 (racemic) [Mefenpyr-diethyl, diethyl (RS)-1-(2,4-dichlorophenyl)-5-methyl-2-pyrazoline-3,5-dicarboxylate]",Obs % visual injury BRSAG,[1]; safener alone 5 g ai/ha,0%
same,Obs % visual injury BRSAG,[1]; safener alone 10 g ai/ha,0%
same,Obs % visual injury BRSAG,[1]; safener alone 20 g ai/ha,0%
same,Obs % visual injury BRSAG,[1]; safener alone 40 g ai/ha,0%
same,Obs % visual injury BRSNN,[2]; safener alone 5 g ai/ha,0%
same,Obs % visual injury BRSNN,[2]; safener alone 10 g ai/ha,0%
same,Obs % visual injury BRSNN,[2]; safener alone 20 g ai/ha,0%
same,Obs % visual injury BRSNN,[2]; safener alone 40 g ai/ha,0%
same,Obs % visual injury RR-BRSNN,[3]; safener alone 5 g ai/ha,0%
same,Obs % visual injury RR-BRSNN,[3]; safener alone 10 g ai/ha,0%
same,Obs % visual injury RR-BRSNN,[3]; safener alone 20 g ai/ha,0%
same,Obs % visual injury RR-BRSNN,[3]; safener alone 40 g ai/ha,0%
same,Obs % visual injury BRSJU,[4]; safener alone 5 g ai/ha,0%
same,Obs % visual injury BRSJU,[4]; safener alone 10 g ai/ha,0%
same,Obs % visual injury BRSJU,[4]; safener alone 20 g ai/ha,0%
same,Obs % visual injury BRSJU,[4]; safener alone 40 g ai/ha,0%
same,Obs % visual injury BRSNW,[5]; safener alone 5 g ai/ha,0%
same,Obs % visual injury BRSNW,[5]; safener alone 10 g ai/ha,0%
same,Obs % visual injury BRSNW,[5]; safener alone 20 g ai/ha,0%
same,Obs % visual injury BRSNW,[5]; safener alone 40 g ai/ha,0%
same,Obs % visual injury BRSRR,[6]; safener alone 5 g ai/ha,0%
same,Obs % visual injury BRSRR,[6]; safener alone 10 g ai/ha,0%
same,Obs % visual injury BRSRR,[6]; safener alone 20 g ai/ha,0%
same,Obs % visual injury BRSRR,[6]; safener alone 40 g ai/ha,0%
same,Obs % visual injury BRSNN-NEX,[7]; safener alone 5 g ai/ha,0%
same,Obs % visual injury BRSNN-NEX,[7]; safener alone 10 g ai/ha,0%
same,Obs % visual injury BRSNN-NEX,[7]; safener alone 20 g ai/ha,0%
same,Obs % visual injury BRSNN-NEX,[7]; safener alone 40 g ai/ha,0%
same,Obs % visual injury BRSNA,[8]; safener alone 5 g ai/ha,0%
same,Obs % visual injury BRSNA,[8]; safener alone 10 g ai/ha,0%
same,Obs % visual injury BRSNA,[8]; safener alone 20 g ai/ha,0%
same,Obs % visual injury BRSNA,[8]; safener alone 40 g ai/ha,0%
"O=C(O)c1nc(Cl)ccc1Cl [Clopyralid-olamine, 2-hydroxyethanaminium 3,6-dichloro-2-pyridinecarboxylate]",Obs % visual injury,[1]; partner alone 50 g ai/ha,0%
same,Obs % visual injury,[1]; partner alone 100 g ai/ha,0%
same,Obs % visual injury,[1]; partner alone 200 g ai/ha,0%
same,% Visual Injury BRSAG Obs,[1]; [9],0%
same,% Visual Injury Obs,[1]; [9],0%
same,% Visual Injury BRSAG Obs,[1]; [10],0%
same,% Visual Injury Obs,[1]; [10],0%
same,% Visual Injury BRSAG Obs,[1]; [11],0%
same,% Visual Injury Obs,[1]; [11],0%
same,% Visual Injury BRSAG Obs,[1]; [12],0%
same,Obs % visual injury,[2]; partner alone 50 g ai/ha,2%
same,Obs % visual injury,[2]; partner alone 100 g ai/ha,0%
same,Obs % visual injury,[2]; partner alone 200 g ai/ha,0%
same,% Visual Injury BRSNN Obs,[2]; [9],2%
same,% Visual Injury Obs,[2]; [9],2%
same,% Visual Injury BRSNN Obs,[2]; [10],0%
same,% Visual Injury Obs,[2]; [10],0%
same,% Visual Injury BRSNN Obs,[2]; [11],0%
same,% Visual Injury Obs,[2]; [11],0%
same,% Visual Injury BRSNN Obs,[2]; [12],2% and 0%
same,Obs % visual injury,[3]; partner alone 50 g ai/ha,0%
same,Obs % visual injury,[3]; partner alone 100 g ai/ha,0%
same,Obs % visual injury,[3]; partner alone 200 g ai/ha,0%
same,% Visual Injury Obs,[3]; [9],0%
same,% Visual Injury RR-BRSNN Obs,[3]; [9],0%
same,% Visual Injury Obs,[3]; [10],0%
same,% Visual Injury RR-BRSNN Obs,[3]; [10],0%
same,% Visual Injury Obs,[3]; [11],0%
same,% Visual Injury RR-BRSNN Obs,[3]; [11],0%
same,% Visual Injury RR-BRSNN Obs,[3]; [12],0%
same,Obs % visual injury,[4]; partner alone 50 g ai/ha,0%
same,Obs % visual injury,[4]; partner alone 100 g ai/ha,0%
same,Obs % visual injury,[4]; partner alone 200 g ai/ha,0%
same,% Visual Injury BRSJU Obs,[4]; [9],0%
same,% Visual Injury Obs,[4]; [9],0%
same,% Visual Injury BRSJU Obs,[4]; [10],0%
same,% Visual Injury Obs,[4]; [10],0%
same,% Visual Injury BRSJU Obs,[4]; [11],0%
same,% Visual Injury Obs,[4]; [11],0%
same,% Visual Injury BRSJU Obs,[4]; [12],0%
same,Obs % visual injury,[5]; partner alone 50 g ai/ha,0%
same,Obs % visual injury,[5]; partner alone 100 g ai/ha,0%
same,Obs % visual injury,[5]; partner alone 200 g ai/ha,0%
same,% Visual Injury BRSNW Obs,[5]; [9],0%
same,% Visual Injury Obs,[5]; [9],0%
same,% Visual Injury BRSNW Obs,[5]; [10],0%
same,% Visual Injury Obs,[5]; [10],0%
same,% Visual Injury BRSNW Obs,[5]; [11],0%
same,% Visual Injury Obs,[5]; [11],0%
same,% Visual Injury BRSNW Obs,[5]; [12],0%
same,Obs % visual injury,[6]; partner alone 50 g ai/ha,0%
same,Obs % visual injury,[6]; partner alone 100 g ai/ha,0%
same,Obs % visual injury,[6]; partner alone 200 g ai/ha,0%
same,% Visual Injury BRSRR Obs,[6]; [9],0%
same,% Visual Injury Obs,[6]; [9],0%
same,% Visual Injury BRSRR Obs,[6]; [10],0%
same,% Visual Injury Obs,[6]; [10],0%
same,% Visual Injury BRSRR Obs,[6]; [11],0%
same,% Visual Injury Obs,[6]; [11],0%
same,% Visual Injury BRSRR Obs,[6]; [12],0%
same,Obs % visual injury,[7]; partner alone 50 g ai/ha,0%
same,Obs % visual injury,[7]; partner alone 100 g ai/ha,0%
same,Obs % visual injury,[7]; partner alone 200 g ai/ha,0%
same,% Visual Injury BRSNN-NEX Obs,[7]; [9],0%
same,% Visual Injury Obs,[7]; [9],0%
same,% Visual Injury BRSNN-NEX Obs,[7]; [10],0%
same,% Visual Injury Obs,[7]; [10],0%
same,% Visual Injury BRSNN-NEX Obs,[7]; [11],0%
same,% Visual Injury Obs,[7]; [11],0%
same,% Visual Injury BRSNN-NEX Obs,[7]; [12],0%
same,Obs % visual injury,[8]; partner alone 50 g ai/ha,0%
same,Obs % visual injury,[8]; partner alone 100 g ai/ha,0%
same,Obs % visual injury,[8]; partner alone 200 g ai/ha,0%
same,% Visual Injury BRSNA Obs,[8]; [9],0%
same,% Visual Injury Obs,[8]; [9],0%
same,% Visual Injury BRSNA Obs,[8]; [10],0%
same,% Visual Injury Obs,[8]; [10],0%
same,% Visual Injury BRSNA Obs,[8]; [11],0%
same,% Visual Injury Obs,[8]; [11],0%
same,% Visual Injury BRSNA Obs,[8]; [12],0%
